According to patent US20030158250A1, “Agents correcting gene expression regulatory error” (priority 2000, published 2003):

What was measured:
Type in all cases: cell-based
[1] = system: myeloid leukemia cell differentiation protein-1 (MCL1); experiment: RT-PCR expression level of MCL1 gene in monocytes; settings: human monocytes, 30 PCR cycles
Method: (§1) Four-hundred milliliters of blood was collected from a human normal individual donor. The collected blood was diluted 2-folds with PBS(−), overlaid on Ficoll-paque (manufactured by Pharmacia), and centrifuged at 500×g for 20 minutes. The peripheral blood mononuclear cells (PBMCs) in the intermediate layer was collected with a pipette, and washed with RPMI 1640 medium (manufactured by Bio Whittaker). The collected PBMCs was suspended in a storage solution of 90% FCS (manufactured by JRH Biosciences)/10% dimethyl sulfoxide, and stored in liquid nitrogen. During the experiment, these stored PBMCs were rapidly melted in water bath at 37° C., and washed with RPMI 1640 medium containing 10 μg/ml Dnase (manufactured by Calbiochem). Thereafter, the number of living cells was calculated by trypan blue staining method, and subjected to each experiment.
(§2) PBMCs were suspended in RPMI 1640 medium containing 5% human serum of blood type-AB, 0.1 mM nonessential amino acid, 1 mM sodium pyruvate, 2 mM L-glutamine (hereinabove manufactured by Bio Whittaker), 10 mM HEPES (manufactured by nakalai tesque), and 1% streptomycin-penicillin (manufactured by Gibco BRL) (hereinafter simply referred to as “5HRPMI medium”) so as to have a concentration of 4×10^6 cells/ml. Thereafter, the suspension was spread on a 6-well cell culture plate (manufactured by Falcon) in a volume of 3 ml/well, and the cells were incubated in a wet-type incubator at 37° C. and 5% CO2 for 1.5 hours. After 1.5 hours, the non-adherent cells were removed by suction, and each well was washed with RPMI 1640 medium, and 2 ml of the 5HRPMI medium was added to the wells, to give monocytes.
(§3) To the monocytes obtained above was added in each well 8 μl of an aqueous DGE solution, or 8 μl of water as a control, and the cells were incubated in a wet-type incubator at 37° C. and 5% CO2 for 5 hours. Thereafter, with addition of 2 μl of a 1 μg/ml aqueous LPS solution or 2 μl of a 25 μM TPA dimethyl sulfoxide solution to each well, or with addition of neither of these substances thereto, the cells were cultured for additional 4 hours. Thereafter, RNA was prepared from each cell in accordance with the description of the kit using RNeasy Mini Kit (manufactured by QIAGEN, 74104). The group with addition of water alone or the aqueous DGE solution alone to the cells was set as a negative control, and the group with addition of water and the aqueous LPS solution or the aqueous TPA solution to the cells was set as a positive control.
(§4) A liquid mixture having a total volume of 60 μl of 0.5 μg of RNA prepared above, 10 mM Tris-HCl (pH 8.3), 50 mM KCl, 5 mM MgCl2, 1 mM dNTP mixtures, 150 pmol of Random 6 mers, 60 U Ribonuclease Inhibitor (manufactured by Takara Shuzo Co., Ltd., 2310A), and 15 U Reverse Transcriptase XL (AMV) (manufactured by Takara Shuzo Co., Ltd., 2620A) were incubated at 30° C. for 10 minutes and thereafter at 42° C. for 1 hour using a thermal cycler (GeneAmp PCR System 9600, manufactured by Applied Biosystems), and the mixture was heated at 99° C. for 5 minutes to deactivate the enzyme, to give cDNA.
(§5) Oligonucleotide primers for reaction of PCR were designed based on mRNA nucleotide sequence of each gene listed in the following tables, and synthesized in the same manner as above. In Tables 4 and 5, each gene evaluated in this Example, GenBank Accession NO, the name of oligonucleotide primers and SEQ ID NOs of the primers in Sequence Listing were listed. […]

[2] = system: RANTES mRNA; experiment: RT-PCR of RANTES mRNA in monocytes; settings: human monocytes
Method: as §1
PBMCs were suspended in RPMI 1640 medium containing 5% human serum of blood type-AB, 0.1 mM nonessential amino acid, 1 mM sodium pyruvate, 2 mM L-glutamine (hereinabove manufactured by Bio Whittaker), 10 mM HEPES (manufactured by nakalai tesque), and 1% streptomycin-penicillin (manufactured by Gibco BRL) (hereinafter simply referred to as “5HRPMI medium”) so as to have a concentration of 4×10^6 cells/ml. […]

[3] = system: interleukin-1α (IL-1α); experiment: RT-PCR expression level of IL-1α gene in monocytes; settings: human monocytes, 30 PCR cycles
Method: as §1, §2, §3, §4, §5

[4] = system: CD37 antigen (CD37); experiment: RT-PCR expression level of CD37 gene in monocytes; settings: human monocytes, 35 PCR cycles
Method: as §1, §2, §3, §4, §5

[5] = system: matrix metalloproteinase-9 (MMP-9); experiment: RT-PCR expression level of MMP-9 gene in monocytes; settings: human monocytes, 30 PCR cycles
Method: as §1, §2, §3, §4, §5

[6] = system: Nef-associated factor-1 (NAF1); experiment: RT-PCR expression level of NAF1 gene in monocytes; settings: human monocytes, 30 PCR cycles
Method: as §1, §2, §3, §4, §5

[7] = system: GABA(A) receptor-associated protein (GABArp); experiment: RT-PCR expression level of GABArp gene in monocytes; settings: human monocytes, 30 PCR cycles
Method: as §1, §2, §3, §4, §5

[8] = system: interferon-inducible protein p78 (IFNp78); experiment: RT-PCR expression level of IFNp78 gene in monocytes; settings: human monocytes, 30 PCR cycles
Method: as §1, §2, §3, §4, §5

[9] = L + D: DGE and LPS, LPS alone +/−
[10] = T + D: DGE and TPA, TPA alone +
[11] = substance added alone, Con. (water) +
[12] = substance added alone, Con. (water) +/−
[13] = L + D: DGE and LPS, LPS alone −
[14] = T + D: DGE and TPA, TPA alone +/−
[15] = substance added alone, Con. (water) −
[16] = L + D: DGE and LPS, LPS alone ++

Molecule | expression level of MCL1 gene [1, 11] | expression level of IL-1α gene [3, 12] | expression level of CD37 gene [4, 12] | expression level of MMP-9 gene [5, 15] | expression level of NAF1 gene [6, 11] | expression level of GABArp gene [7, 11] | expression level of IFNp78 gene [8, 11] | also measured
O=C1C=CC(CO)OC1O [DGE, L-glycero-1,5-epoxy-1αβ,6-dihydroxy-cis-hex-3-en-2-one] | + | − | +/− | − | − | + | +/− | expression level of MCL1 gene [1, 9]: +; expression level of MCL1 gene [1, 10]: +; induction of RANTES mRNA by LPS, effect of DGE ([2]; DGE 5 hours, then LPS 4 hours, RT-PCR band): inhibited; expression level of IL-1α gene ([3]; L + D: DGE and LPS, LPS alone +++): +/−; expression level of IL-1α gene [3, 10]: −; expression level of CD37 gene [4, 13]: +; expression level of CD37 gene [4, 14]: +/−; expression level of MMP-9 gene [5, 13]: −; expression level of MMP-9 gene [5, 10]: −; expression level of NAF1 gene [6, 16]: +/−; expression level of NAF1 gene [6, 14]: −; expression level of GABArp gene [7, 9]: +; expression level of GABArp gene [7, 10]: +; expression level of IFNp78 gene [8, 16]: −; expression level of IFNp78 gene [8, 10]: +/−
lipopolysaccharide [LPS, reference compound] | +/− | +++ | − | − | ++ | +/− | ++ | amplification of band ascribed to RANTES mRNA, stimulant alone ([2]; LPS alone, 4 hours, RT-PCR): induction
12-o-tetradecanoylphorbol 13-acetate [TPA, reference compound] | + | + | +/− | + | +/− | + | + | 
